Experimental data published in patent US11124526B2, “Crystalline beta-lactamase inhibitor” (Allecra Therapeutics SAS, priority 2013, dated 2021).
Values after ≈ are worked out from the molar mass of the structure shown.

Experiments:
Type in all cases: physicochemical
[1] = Solubility assessment of Form C in saline physiological solution (HPLC)
Experimental: The Form C solubility was calculated by HPLC employing a dedicated walk-up method. The product obtained by the scaled up procedure described in Example 13 was used to perform the experiments.
1.9 g of the product was suspended in 1 ml of commercial physiologic solution (0.9% of NaCl) at ambient temperature (˜20 ° C.). The suspension resulted slightly opaque and quite viscous after 30 min. After this time the suspension was sampled and the sample injected in HPLC to determine its concentration. After 2 hrs stirring the solid residue was completely dissolved. The addition of more solid was not performed to avoid the gelatinisation of the viscous solution. A sample was taken and injected in HPLC to determine its concentration. The solution was stirred other 3 hrs and sampled again. The 5 hrs sample was also injected in HPLC to determine its concentration.

[2] = Stability tests of Form F stored at controlled temperature and RH
[3] = Hygroscopicity of Form F (% weight change at 25° C. and 80% RH)
Experimental: The hygroscopicity was calculated using the following equation: % Weight Change=[(W2−W1)W1]*100 wherein, • W1 is weight of sample at the start of the experiment; and • W2 is weight of sample at 25° C. and 80% RH in the first absorption cycle.

[4] = Dynamic Vapor Sorption (DVS) of Form F; details: 25° C.
Experimental: Kinetic moisture sorption measurements were performed at 25° C. and at relative humidity (RH % target as follows: • From 40% RH to 90% RH • Form 90% RH to 0% RH • From 0% RH to 90% RH • From 90% RH to 0% RH The kinetic moisture sorption measurement was performed at 25° C. and in a RH % range described in the following: • From 40% RH to 90% RH • Form 90% RH to 0% RH • From 0% RH to 90% RH • From 90% RH to 0% RH The experiment is performed on 10-15 mg of sample and the equilibrium criterion is set as dm/dt<0.002% w/w in 10 min with a maximum step time of 240 min.

[5] = Solubility of amorphous compound of formula (I) in selected solvents (slurry stirred 4 hours, mother liquor by HPLC); details: thermodynamic from solid
Experimental: Solubility values of solvents were calculated with respect to the HPLC response factor, set out in FIG. 12.
HPLC response factor was calculated for the amorphous compound of formula (I) using samples dissolved in acetonitrile/water 9/1 with the following method: • Column: ZORBAX Eclipse XDB-C18 (150×4.6 mm, 5 μm) • Temperature: 25° C. • Mobile phase: A: 0.05M Sodium ortophosphate/water, B: Acetonitrile • Gradient: from 5% of B to 95% of B in 10 min • Detector: UV λ=220 nm
Slurries of the amorphous compound of formula (I) in the selected solvents were prepared and stirred at 20° C. and 40° C. for 4 hours. • Samples of each slurry were filtered and the mother liquors injected in HPLC. • The solid residual were isolated and analyzed by XRPD. • The results are summarized in the following Table 4.

[6] = Inventors' findings on hygroscopicity and stability of amorphous versus crystalline compound of formula (I)
[7] = 25° C. and 80% RH, first absorption cycle

SMILES: C[n+]1ccn(C[C@@]2(C)[C@H](C(=O)[O-])N3C(=O)C[C@H]3S2(=O)=O)n1 [Form C, (2S,3S,5R)-3-methyl-3-((3-methyl-1H-1,2,3-triazol-3-ium-1-yl)methyl)-7-oxo-4-thia-1-azabicyclo[3.2.0]heptane-2-carboxylate 4,4-dioxide]
- Formation of impurities in physiologic solution (HPLC traces) ([1]; 0.9% NaCl, ambient temperature, up to 5 hrs): did not show the formation of significant impurities
- solubility at 30 min ([1]; physiologic solution (0.9% NaCl), saline or isotonic, thermodynamic from solid, physiologic solution (0.9% of NaCl), ~20 ° C., timepoint 30 mins, read-out: Solubility (mg/ml) at ambient temperature): 772 mg/mL (≈ 2460 mM)
- solubility at 2 h ([1]; physiologic solution (0.9% NaCl), saline or isotonic, thermodynamic from solid, physiologic solution (0.9% of NaCl), ~20 ° C., timepoint 2 hours, solid completely dissolved, read-out: Solubility (mg/ml) at ambient temperature): > 883 mg/mL
- solubility at 5 h ([1]; physiologic solution (0.9% NaCl), saline or isotonic, thermodynamic from solid, physiologic solution (0.9% of NaCl), ~20 ° C., timepoint 5 hours, read-out: Solubility (mg/ml) at ambient temperature): > 812 mg/mL

SMILES: C[n+]1ccn(C[C@@]2(C)[C@H](C(=O)[O-])N3C(=O)C[C@H]3S2(=O)=O)n1 [Form F, (2S,3S,5R)-3-methyl-3-((3-methyl-1H-1,2,3-triazol-3-ium-1-yl)methyl)-7-oxo-4-thia-1-azabicyclo[3.2.0]heptane-2-carboxylate 4,4-dioxide]
- Stability on storage (appearance) ([2]; after a day at 25° C. and 60% RH): becomes a viscous liquid
- Stability on storage (appearance) ([2]; after a day at 60° C. and 75% RH): becomes a viscous liquid
- Hygroscopicity classification [3, 7]: very hygroscopic
- Mass increase (% Weight Change) [3, 7]: greater than 15%
- Appearance at high humidity ([3]; high humidity): becomes a viscous liquid
- Relative humidity up to which the form is stable (DVS) [4]: approximately 50 % RH
- Weight increase (DVS) ([4]; at 90% RH): greater than 50 % w/w
- Water sorption behaviour after the weight increase at 90% RH (DVS) ([4]; following cycles): releases and takes water reversibly

SMILES: C[n+]1ccn(C[C@@]2(C)[C@H](C(=O)[O-])N3C(=O)C[C@H]3S2(=O)=O)n1 [amorphous compound of formula (I), (2S,3S,5R)-3-methyl-3-((3-methyl-1H-1,2,3-triazol-3-ium-1-yl)methyl)-7-oxo-4-thia-1-azabicyclo[3.2.0]heptane-2-carboxylate 4,4-dioxide]
- solubility at 4 h ([5]; organic solvent or mixture, 1-butanol, 20° C.): 97 mg/mL
- solubility at 4 h ([5]; organic solvent or mixture, 1-butanol, 40° C.): 167 mg/mL
- solubility at 4 h ([5]; organic solvent or mixture, 1-propanol, 20° C.): 295 mg/mL
- solubility at 4 h ([5]; organic solvent or mixture, 1-propanol, 40° C.): > 400 mg/mL
- solubility at 4 h ([5]; organic solvent or mixture, 2-propanol, 20° C.): 23 mg/mL
- solubility at 4 h ([5]; organic solvent or mixture, 2-propanol, 40° C.): 28 mg/mL
- solubility at 4 h ([5]; organic solvent or mixture, Acetonitrile, 20° C.): 6 mg/mL
- solubility at 4 h ([5]; organic solvent or mixture, Dimethylsulfoxide, 20° C.): > 400 mg/mL
- solubility at 4 h ([5]; organic solvent or mixture, Dimethylsulfoxide, 40° C.): > 400 mg/mL
- solubility at 4 h ([5]; organic solvent or mixture, Ethanol, 20° C.): 420 mg/mL
- solubility at 4 h ([5]; organic solvent or mixture, Ethanol, 40° C.): > 420 mg/mL
- solubility at 4 h ([5]; organic solvent or mixture, Ethanol/acetone 20%, 20° C.): > 300 mg/mL
- solubility at 4 h ([5]; organic solvent or mixture, Ethanol/acetone 40%, 20° C.): > 300 mg/mL
- solubility at 4 h ([5]; organic solvent or mixture, Ethanol/methyl tert-butyl ether 20%, 20° C.): 52 mg/mL
- solubility at 4 h ([5]; organic solvent or mixture, Ethanol/methyl tert-butyl ether 40%, 20° C.): 16 mg/mL
- solubility at 4 h ([5]; organic solvent or mixture, Methanol, 20° C.): > 400 mg/mL
- solubility at 4 h ([5]; organic solvent or mixture, Methanol, 40° C.): > 400 mg/mL
- solubility at 4 h ([5]; Water, 20° C.): > 400 mg/mL
- solubility at 4 h ([5]; Water, 40° C.): > 400 mg/mL
- Hygroscopicity (statement in words) [6]: hygroscopic
- Stability when stored ([6]; stored at room temperature): limited stability
